From PubChem BioAssay (NCI)
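Exposure lasted 48 hours, with cells grown in 96-well plates and compounds tested at five concentrations. GI50 = concentration required for 50% inhibition of growth. TGI: total growth inhibition.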

system: HT29 colon; test: NCI-60 cell line screen, 48 h

Compound	GI50	TGI
O=c1oc(Cl)c(Cl)c2ccccc12	34.9 µM	> 100 µM
O=C(NCCNCCCNC(=O)c1cc(-c2ccccc2)nc2ccccc12)c1cccc(O)c1O	–	22.2 µM
Cc1ccc(C(CC(=O)c2ccccc2)C2C(=O)NC(=O)NC2=O)cc1 (stereo not drawn)	> 100 µM	> 100 µM
Cc1cc(N(CCC#N)CCC#N)ccc1/C(N=Nc1ccc(C(=O)O)cc1)=N\NC(=O)c1cc(Cl)ccc1O	–	> 100 µM

system: PC-3 prostate; test: NCI-60 cell line screen, 48 h

Compound	GI50	TGI
O=c1oc(Cl)c(Cl)c2ccccc12	17.8 µM	35.2 µM
O=C(NCCNCCCNC(=O)c1cc(-c2ccccc2)nc2ccccc12)c1cccc(O)c1O	–	> 100 µM
Cc1ccc(C(CC(=O)c2ccccc2)C2C(=O)NC(=O)NC2=O)cc1 (stereo not drawn)	> 100 µM	> 100 µM
Cc1cc(N(CCC#N)CCC#N)ccc1/C(N=Nc1ccc(C(=O)O)cc1)=N\NC(=O)c1cc(Cl)ccc1O	–	> 100 µM
COc1ccc(-c2nc(/C=N/Nc3cc(C)nc4ccc(Cl)cc34)c(C)o2)cc1	1.66 µM	3.17 µM

system: K-562 leukemia; test: NCI-60 cell line screen, 48 h

Compound	GI50	TGI
O=c1oc(Cl)c(Cl)c2ccccc12	27.2 µM	70.5 µM
O=C(NCCNCCCNC(=O)c1cc(-c2ccccc2)nc2ccccc12)c1cccc(O)c1O	–	11.1 µM
Cc1ccc(C(CC(=O)c2ccccc2)C2C(=O)NC(=O)NC2=O)cc1 (stereo not drawn)	> 100 µM	> 100 µM
Cc1cc(N(CCC#N)CCC#N)ccc1/C(N=Nc1ccc(C(=O)O)cc1)=N\NC(=O)c1cc(Cl)ccc1O	–	> 100 µM

system: MCF7 breast; test: NCI-60 cell line screen, 48 h

Compound	GI50	TGI
O=c1oc(Cl)c(Cl)c2ccccc12	35.5 µM	> 100 µM
O=C(NCCNCCCNC(=O)c1cc(-c2ccccc2)nc2ccccc12)c1cccc(O)c1O	–	15.9 µM
Cc1ccc(C(CC(=O)c2ccccc2)C2C(=O)NC(=O)NC2=O)cc1 (stereo not drawn)	> 100 µM	> 100 µM
Cc1cc(N(CCC#N)CCC#N)ccc1/C(N=Nc1ccc(C(=O)O)cc1)=N\NC(=O)c1cc(Cl)ccc1O	–	> 100 µM

system: BT-549 breast; test: NCI-60 cell line screen, 48 h

Compound	GI50	TGI
O=c1oc(Cl)c(Cl)c2ccccc12	20.8 µM	41.2 µM
O=C(NCCNCCCNC(=O)c1cc(-c2ccccc2)nc2ccccc12)c1cccc(O)c1O	–	11.9 µM
Cc1ccc(C(CC(=O)c2ccccc2)C2C(=O)NC(=O)NC2=O)cc1 (stereo not drawn)	> 100 µM	> 100 µM
Cc1cc(N(CCC#N)CCC#N)ccc1/C(N=Nc1ccc(C(=O)O)cc1)=N\NC(=O)c1cc(Cl)ccc1O	–	> 100 µM
COc1ccc(-c2nc(/C=N/Nc3cc(C)nc4ccc(Cl)cc34)c(C)o2)cc1	1.95 µM	4.28 µM

system: NCI-H522 lung; test: NCI-60 cell line screen, 48 h

Compound	GI50	TGI
O=c1oc(Cl)c(Cl)c2ccccc12	> 100 µM	> 100 µM
O=C(NCCNCCCNC(=O)c1cc(-c2ccccc2)nc2ccccc12)c1cccc(O)c1O	–	29.7 µM
Cc1ccc(C(CC(=O)c2ccccc2)C2C(=O)NC(=O)NC2=O)cc1 (stereo not drawn)	> 100 µM	> 100 µM
Cc1cc(N(CCC#N)CCC#N)ccc1/C(N=Nc1ccc(C(=O)O)cc1)=N\NC(=O)c1cc(Cl)ccc1O	–	35.9 µM

system: COLO 205 colon; test: NCI-60 cell line screen, 48 h

Compound	GI50	TGI
O=c1oc(Cl)c(Cl)c2ccccc12	22.8 µM	63.7 µM
O=C(NCCNCCCNC(=O)c1cc(-c2ccccc2)nc2ccccc12)c1cccc(O)c1O	–	22.4 µM
Cc1ccc(C(CC(=O)c2ccccc2)C2C(=O)NC(=O)NC2=O)cc1 (stereo not drawn)	> 100 µM	> 100 µM
Cc1cc(N(CCC#N)CCC#N)ccc1/C(N=Nc1ccc(C(=O)O)cc1)=N\NC(=O)c1cc(Cl)ccc1O	–	> 100 µM
COc1ccc(-c2nc(/C=N/Nc3cc(C)nc4ccc(Cl)cc34)c(C)o2)cc1	1.63 µM	3.18 µM

system: 786-0 renal; test: NCI-60 cell line screen, 48 h

Compound	GI50	TGI
O=c1oc(Cl)c(Cl)c2ccccc12	19.2 µM	40.4 µM
O=C(NCCNCCCNC(=O)c1cc(-c2ccccc2)nc2ccccc12)c1cccc(O)c1O	–	> 100 µM
Cc1ccc(C(CC(=O)c2ccccc2)C2C(=O)NC(=O)NC2=O)cc1 (stereo not drawn)	> 100 µM	> 100 µM
